Read-outs that look alike come from different tables or passages of the source.
How the values were obtained:
BRD4-HiBiT HEK293T cells = settings: 18 h, 70-0.01 μM
[1] = target: T1, BRD4 (HEK293 HiBiT-BRD4 Cln3 cells) (Homo sapiens, UniProt O60885); format: cell-based; settings: 5 h treatment, PBS washing, 24 h recovery with excess VH032 (50 μM) vs standard treatment 29 h; from AUC of residual BRD4 long isoform
T1 construct: GSK; host or cells: HEK293 HiBiT-BRD4 Cln3
Description: To further investigate the potential advantage of a covalent VHL ligand, we performed a head-to-head comparison of BRD-SF2 and MZ-1 in a washout experiment.
BRD4 and loading control Tubulin levels were visualized by Western blotting. […] BRD4 and loading control Tubulin levels were visualized by Western blotting.
with BRD-SF2 and MZ1, followed by 3 cycles of PBS wash, where media was aspirated, and
PBS used to gently wash the cells before allowing 24 h recovery incubation in DMEM media
The control plate was run as
described above, but no washout was applied making the total incubation time 29 h (5 h + 24
h). The assay was performed and analysed as described above.

[2] = target: T1, BRD4 (HEK293 HiBiT-BRD4 Cln3 cells); test: BRD4 HiBiT degradation assay; format: cell-based
Description: Figure 3 (A) Structure of BRD-SF2. […] BRD4 and loading control GAPDH levels were visualized by Western blotting. […] (D) HEK293 HiBiT-BRD4 Cln3 cells were treated with epoxomicin (1 μM) for 3 h, followed by the respective PROTAC or VHL-SF2 dose-dependently (75–0.01 μM) for 18 h. […] (E) HEK293 HiBiT-BRD4 Cln3 cells were treated with MLN4924 (1 μM) for 3 h, followed by the respective PROTAC or VHL-SF2 dose-dependently (75–0.01 μM) for 18 h. […] (F) Structure of AR-VHL-SF2 and AR2-VHL-SF2. […] The data the show mean ± SEM (n = 3).
Cellular BRD4/AR HiBiT assay
The HiBiT tagged cells were seeded at 10,000 cells per well in a 384-well plate (Thermo Scientific, 164610) at 25 µL per well in DMEM media containing 10% FBS and incubated overnight. Compounds were dispensed using D300e Digital Dispenser (HP) and normalized to 0.1% DMSO. Cells were pre-treated with Epoxomicin or MLN4924 for 3 h before treatment or directly with the PROTAC degraders for 18 or 24 h. Nano -Glo HiBiT lytic detection assay was performed as described in the manufacturer protocol (Promega). 25 µL of premixed detection reagent was added to each well of the 384 well assay plate and incubated for 15 min on an orbital shaker (at 600 RPM), and luminescence was read using a PHERAstar FS plate reader (BMG Labtech). Corresponding background RLU values were subtracted from DMSO control values and the percentage of protein (%) of were then calculated against […]
DMSO-treated controls. […]

[3] = target: T2, endogenous BRD4 in HEK293 cells (Homo sapiens, UniProt O60885); test: Endogenous BRD4 degradation, Western blot; format: cell-based; settings: 18 h, read-out: BRD4 long isoform Dmax
T2 construct: endogenous in cells; host or cells: HEK293

[4] = target: T3, recombinant human VCB (VHL protein with elongin C and elongin B) (Homo sapiens, UniProt P40337); test: Gel-based streptavidin shift assay (anti-VHL Western blot); format: binding; settings: 10 μM probe, 2 h incubation at room temperature
T3 construct: human VHL (UniPort entry P40337, residues 1 -213); 6xHis followed by TEV site (N, cleaved yes); made in house; host or cells: E. coli One Shot BL21(DE3)
Description: (§1) To assess the ability of VHL-SF1 to covalently modify VHL, we initially developed a streptavidin shift assay in which we exposed recombinant human VCB, a stable complex of VHL protein with elongin C and elongin B, to VHL-SF1-Biotin. VHL biotinylation could then be directly quantified by the apparent shift in molecular weight observed when the sample was mixed with streptavidin and analyzed by an anti-VHL Western blot (Figure S2).[20] Through this assay, we concluded that 10 μM VHL-SF1-Biotin modified 32% VHL following 2 h of incubation at room temperature, which was further confirmed to be concentration-dependent with respect to the probe (Figure S3).
Figure S2. (A) Structure of VHL-SF-1-Biotin. (B) Structure of VHL-SF-2-Biotin. (C - E) Gel-based streptavidin shift assay of VHL-SF1-Biotin, and VHL-SF2-Biotin. VCB protein was pre-treated with DMSO, VHL-SF1-Biotin (10 μM) or VHL-SF2-Biotin (10 μM) for 2 h at room temperature prior to addition of streptavidin (10 μM, 10 min) at room temperature, after which protein was resolved on SDS-PAGE and visualised by VHL western blotting. (F) Quantification of VHL levels from western blot.
Docking analysis with Molecular Operating Environment (MOE)
Molecular modelling studies were conducted using the software Molecular Operating Environment 2019.01. […]

VCB protein = target: T4, VCB protein (Homo sapiens, UniProt P40337); test: Gel-based labelling of VHL (Neutravidin HRP blot); format: binding; settings: 2 h at room temperature, 1-100 µM probe
T4 construct: human VHL (UniPort entry P40337, residues 1 -213); 6xHis followed by TEV site (N, cleaved yes); made in house; host or cells: E. coli One Shot BL21(DE3)
Description: as §1
Figure S3. (A) Gel-based VHL labelling of VHL-SF1-Biotin, and (B) VHL-SF2-Biotin. […]
Figure S4. Dose-response of VHL-SF1 following a 2 h pre-incubation in the presence of VCB and FAM-conjugated HIF1α-derived peptide, assessed by fluorescence polarization. […]
VCB (11.1 mg/ mL) was diluted with PBS pH 7.4 (2 µg/ mL). […] 10 µL of each sample was loaded onto the gel and the bands were quantified […]
HEK293T cells were plated into two 6 well plates (in 1 mL media 10% FBS low glucose media) at a cell density of 1.0 x 10^6 cells/well 24 h before treatment. […] Proteins were separated by SDS -PAGE and further analyzed by immunoblotting. […]

| Compound | cytotoxicity (CellTiter-Glo) (BRD4-HiBiT HEK293T cells) | relative decrease in degradation activity after washout [1] | Dmax ([2]; HEK293, read-out: Dmax (BRD4 degradation)) | BRD4 depletion in presence of NEDDylation inhibitor MLN4924 ([2]; MLN4924 1 μM 3 h pretreatment, then compound 18 h) | BRD4 depletion in presence of proteasome inhibitor epoxomicin ([2]; epoxomicin 1 μM 3 h pretreatment, then compound 18 h) | DC50 ([2]; read-out: BRD4 DC50) | DC50 ([2]; read-out: DC50 (BRD4 degradation), 18 h incubation) | Dmax [3] | VHL modified (VHL biotinylation, streptavidin shift) [4] | VHL labelling with respect to probe concentration (VCB protein) |
| --- | --- | --- | --- | --- | --- | --- | --- | --- | --- | --- |
| COCC(COC)n1c(-c2cc(C)c(=O)n(C)c2)nc2cc(C3CCN(C(=O)COCCOCCOCCNC(=O)C[C@H](NC(=O)[C@@H]4C[C@@H](S(=O)(=O)F)CN4C(=O)[C@@H](c4cc(C)no4)C(C)C)c4ccc(-c5scnc5C)cc4)CC3)ccc21 [BRD-SF2, (3R,5S)-5-(((S)-1-(4-(1-(1,3-Dimethoxypropan-2-yl)-2-(1,5-dimethyl-6-oxo-1,6-dihydropyridin-3-yl)-1H-benzo[d]imidazole-5-yl)piperidin-1-yl)-15-(4-(4-methylthiazol-5-yl)phenyl)-1,13-dioxo-3,6,9-trioxa-12-azapentadecan-15-yl)carbamoyl)-1-((R)-3-methyl-2-(3-methylisoxazol-5-yl)butanoyl)pyrrolidine-3-sulfonyl fluoride] | no evidence of cytotoxicity | 27% | 60% | not depleted | not depleted | 17 µM | 17.2 µM | 50% | – | – |
| (3R,5S)-1-((S)-2-(tert-Butyl)-4,16-dioxo-20-((3aS,4R,6aR)-2-oxohexahydro-1H-thieno[3,4-d]imidazole-4-yl)-6,9,12-trioxa-3,15-diazaicosanoyl)-5-((4-(4-methylthiazol-5-yl)benzyl)carbamoyl-)pyrrolidine-3-sulfonyl fluoride [VHL-SF1-Biotin] | – | – | – | – | – | – | – | – | 32% | concentration-dependent |
